The target of one series is T1, 5-HT6 (Homo sapiens, UniProt P50406).
T1 construct: expressed in transfected cells; host or cells: HEK293
Put plainly: Functional cAMP assay (LANCE Ultra), 5-HT6. The class given is cell-based. Conditions: Table 3, unit inferred, agonist mode.

The target in the next series is T2, D2 (Homo sapiens, UniProt P14416).
T2 construct: expressed in transfected cells; host or cells: HEK293
Put plainly: Functional cAMP assay (LANCE Ultra), D2. It counts as cell-based. Conditions: Table 3, unit inferred, antagonist mode, 10 nM dopamine. How it is done: (§1) Their functional activity was also evaluated by assessing their ability to inhibit agonist-induced cAMP production in HEK293 cells (Table 3). Extended radioisotope tests were aimed at detecting potential affinity for other aminergic receptors, whose role in cancer treatment may be important. Functions were tested for all receptors. The essence of functional tests results from the fact that serotonin stimulates tumor progression. Therefore, the ligand should have the potential to reduce its concentration, i.e., act as an antagonist.[39]
(§2) The detailed procedure is presented in previous publications.[53] The functional activity of the compounds was assessed using the LANCE Ultra cAMP detection kit (PerkinElmer). […] For other receptors (5-HT7R, 5-HT1AR, and 5-HT6R), 5-CT was used at 10, 100, and 1000 nM, respectively. Each compound was tested in triplicate across eight concentrations. The inhibitory constant (Kb) for each antagonist was calculated using the Cheng–Prusoff equation.

In series [1] the test system is Feline catus astrocyte (PG-4). Put plainly: Cytotoxicity, PG-4 astrocytes. The class given is cell-based. Conditions: Felis catus; normal astrocyte line. As for the experimental part:
(§3) The chosen group of ligands was further examined for their ability to inhibit proliferation across multiple cancer cell lines related to the CNS system (1321N1, U87MG, LN-229, and U-251). These cell lines were characterized by different mutation profiles, the main one being the variable status of the p53 protein. In detail, U87MG cells have a wild-type p53 protein, while astrocytoma and the rest of GBM cells harbor mutated p53 protein. Additional assays were performed on MCF7 breast cancer and AsPC-1 pancreatic cancer cells. The wide range of tested lines was aimed at screening the anticancer potential of the tested compounds. The first represents one of the most common and the second one of the most aggressive cancers in the world. Comparing the activity of compounds on GBM cells to other types of cancer may reveal their selectivity and usefulness in targeted therapies. The cytotoxicity of the compounds on normal human astrocytes (NHA) and Feline catus astrocyte (PG-4) was determined. Tests on normal lines serve to verify the potential toxicity of the tested compounds on healthy cells. Due to the targeting of CNS tumors, astrocytes were selected as normal lines.

A further series has as its target T3, CYP2D6 (Homo sapiens, UniProt P10635).
T3 construct: purchased Promega
Put plainly: P450-Glo assay, CYP2D6. The class given is in vitro ADME. The text has this:
In order to evaluate excretion, we examined the effect on the activity of two cytochrome P-450 isoforms. Inhibition of their activity may lead to the occurrence of drug–drug interactions.

The test system of another series is Danio rerio. Conditions: in vivo. As for the experimental part:
Two compounds, PP 10 and PP 15, were tested for cardiotoxicity in the Danio rerio experimental model (OECD 236 test). […]. To assess potential neurotoxic effects, locomotor activity was examined in the Danio rerio model. Zebrafish larvae’s response to light and dark transitions serves as a useful method for detecting neurotoxicity. […] In our experiment, we switched from light to dark conditions, as zebrafish larvae are known to avoid light and seek darker areas. This behavior helps them evade predators and maintain ideal environmental conditions. […]
Figure 5 A: In vivo toxicity assessment of PP 10 and PP 15 in Danio rerio using the maximum tolerated concentration (MTC) toxicity test. B: Locomotor activity under light conditions, quantified as the distance (in cm) traveled per minute by 5-day postfertilization (dpf) Danio rerio larvae. C: Locomotor activity under dark conditions, with the distance (in cm) traveled per minute recorded for 5-dpf larvae. D: Comparison of activity during the transition from light to dark conditions. E3 refers to the fish embryo growth medium. […]
A locomotor activity test was conducted on zebrafish larvae ([…]). […] The distance traveled by the larvae was measured in both light and dark conditions using EthoVision XT15 software, and the mean distance per minute was calculated for each condition to assess locomotor activity. […]

The target of series [2] is T4, 5-HT7 (Homo sapiens, UniProt P34969).
T4 construct: expressed in transfected cells; host or cells: HEK293
Put plainly: Functional cAMP assay (LANCE Ultra), 5-HT7. The class given is cell-based. How it is done:
as §1, §2

The target of series [3] is T4, 5-HT7. Put plainly: Functional cAMP assay (LANCE Ultra), 5-HT7. Conditions: Table 3, unit inferred, agonist mode. The class given is cell-based.
The next series has as its system cancer cell lines. The series can be described thus: Antiproliferative activity over the tested cancer cell lines. The class given is cell-based. Conditions: Homo sapiens; range or bound over several cell lines. How it is done:
as §3
The detailed procedure is presented in previous publications.[53] […] Cell viability was assessed using the MTS assay, and the inhibitory concentration (IC50) was calculated using GraphPad Prism 8.0. […]

T4 sequence (P34969 whole entry, species assumed): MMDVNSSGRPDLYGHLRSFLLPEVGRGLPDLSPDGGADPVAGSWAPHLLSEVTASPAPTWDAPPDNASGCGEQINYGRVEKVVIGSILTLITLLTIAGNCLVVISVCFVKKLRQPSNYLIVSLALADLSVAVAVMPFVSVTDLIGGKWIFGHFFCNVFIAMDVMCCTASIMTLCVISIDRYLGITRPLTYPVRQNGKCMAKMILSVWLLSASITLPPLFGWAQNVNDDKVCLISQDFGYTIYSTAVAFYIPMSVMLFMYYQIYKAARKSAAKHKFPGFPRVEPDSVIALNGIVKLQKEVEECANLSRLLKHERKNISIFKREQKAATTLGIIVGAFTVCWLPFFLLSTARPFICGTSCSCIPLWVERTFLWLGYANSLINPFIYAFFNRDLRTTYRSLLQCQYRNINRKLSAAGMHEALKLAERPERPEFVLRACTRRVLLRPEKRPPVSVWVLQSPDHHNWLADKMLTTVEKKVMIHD
T3 sequence (P10635 whole entry): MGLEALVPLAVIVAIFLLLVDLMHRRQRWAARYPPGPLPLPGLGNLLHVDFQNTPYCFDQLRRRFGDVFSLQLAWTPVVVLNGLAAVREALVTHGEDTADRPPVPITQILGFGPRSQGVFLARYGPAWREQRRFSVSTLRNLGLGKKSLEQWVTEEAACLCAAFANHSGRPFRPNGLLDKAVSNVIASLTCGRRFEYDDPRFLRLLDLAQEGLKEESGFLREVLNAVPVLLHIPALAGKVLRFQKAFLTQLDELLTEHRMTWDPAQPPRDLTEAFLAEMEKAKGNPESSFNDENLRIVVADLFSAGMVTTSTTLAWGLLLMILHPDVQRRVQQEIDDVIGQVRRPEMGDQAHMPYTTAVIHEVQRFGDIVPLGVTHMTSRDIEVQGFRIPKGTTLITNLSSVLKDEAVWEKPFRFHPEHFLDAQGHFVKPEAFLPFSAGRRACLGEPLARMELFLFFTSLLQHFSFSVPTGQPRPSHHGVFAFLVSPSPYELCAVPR
T1 sequence (P50406 whole entry): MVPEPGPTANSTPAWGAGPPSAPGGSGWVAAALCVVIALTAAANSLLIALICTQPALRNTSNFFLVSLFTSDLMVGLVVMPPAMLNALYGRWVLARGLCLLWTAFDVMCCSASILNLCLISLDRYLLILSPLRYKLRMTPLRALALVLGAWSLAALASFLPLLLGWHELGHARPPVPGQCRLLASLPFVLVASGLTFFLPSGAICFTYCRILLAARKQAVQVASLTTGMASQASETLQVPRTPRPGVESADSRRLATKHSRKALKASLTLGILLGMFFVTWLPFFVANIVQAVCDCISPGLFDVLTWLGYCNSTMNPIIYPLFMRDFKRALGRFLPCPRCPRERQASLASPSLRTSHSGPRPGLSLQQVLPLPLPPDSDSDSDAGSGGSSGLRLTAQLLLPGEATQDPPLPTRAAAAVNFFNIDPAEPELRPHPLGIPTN
T2 sequence (P14416 whole entry): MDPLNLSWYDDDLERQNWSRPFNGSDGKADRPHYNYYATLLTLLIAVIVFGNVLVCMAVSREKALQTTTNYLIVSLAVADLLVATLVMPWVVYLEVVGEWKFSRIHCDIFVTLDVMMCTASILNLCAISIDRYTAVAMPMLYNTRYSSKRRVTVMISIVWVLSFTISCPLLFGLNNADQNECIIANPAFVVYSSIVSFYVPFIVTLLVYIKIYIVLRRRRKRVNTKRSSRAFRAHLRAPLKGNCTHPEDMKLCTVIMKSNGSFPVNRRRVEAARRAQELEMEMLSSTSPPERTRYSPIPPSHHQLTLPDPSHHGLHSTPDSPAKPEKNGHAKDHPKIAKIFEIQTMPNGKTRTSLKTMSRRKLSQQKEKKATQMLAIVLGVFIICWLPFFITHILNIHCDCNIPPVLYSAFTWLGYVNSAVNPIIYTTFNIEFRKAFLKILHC

`O=S(=O)(c1cccc2ccccc12)N1CCN(CCNC2=Nc3ccccc3CN2)CC1` [PP 6, N-{2-[4-(Naphthalene-1-sulfonyl)piperazin-1-yl]ethyl}-3,4-dihydroquinazolin-2-amine] returned an EC50 on 5-HT6 of 367 nM.

For `CC1NC(NCCCCCCNS(=O)(=O)c2cccc3ccccc23)=Nc2ccccc21` (centres unmarked) [PP 10, N-{6-[(4-Methyl-3,4-dihydroquinazolin-2-yl)amino]hexyl}naphthalene-1-sulfonamide], the Kb at D2 came out at 1810 nM; at 5-HT7 [2] (Table 3, unit inferred, cAMP, antagonist mode, 5-CT), 236 nM. This compound yielded an IC50 in series [1] of over 25000 nM. Also, the “impact on the activity of CYP2D6” value on CYP2D6 is reported as “strong effect at a concentration of 1 μM”. Further, the “neurotoxic effects (locomotor activity, light to dark)” value in the series with Danio rerio is reported as “minimal neurotoxic effects”. Besides, at 5-HT7 [2] (in words), the “function at 5-HT7” value is recorded as “antagonist”.

On to `CC1NC(NCCCCCCNS(=O)(=O)c2c(Cl)ccc3ccccc23)=Nc2ccccc21` (centres unmarked) [PP 13, 2-Chloro-N-{6-[(4-methyl-3,4-dihydroquinazolin-2-yl)amino]hexyl}naphthalene-1-sulfonamide], for which the EC50 on 5-HT7 [3] was 53 nM; on 5-HT6, 488 nM. The compound further returned a Kb at D2 of 858 nM.

Consider `O=S(=O)(NCCCCCCNc1ncc2ccccc2n1)c1cccc2ccccc12` [PP 15, N-{6-[(Quinazolin-2-yl)amino]hexyl}naphthalene-1-sulfonamide], for which the IC50 in series [1] was over 25000 nM. For the same compound, the “impact on the activity of CYP2D6” value at CYP2D6 was “passive”. The “neurotoxic effects (locomotor activity, light to dark)” value with Danio rerio is reported as “minimal neurotoxic effects”.

Compound `O=S1(=O)c2cccc3cccc(c23)N1CCCCCCNC1=Nc2ccccc2CN1` [PP 24, 3-{6-[(3,4-Dihydroquinazolin-2-yl)amino]hexyl}-2λ^6-thia-3-azatricyclo[6.3.1.0^4,^12]dodeca-1(11),4(12),5,7,9-pentaene-2,2-dione] yielded an IC50 in the series on cancer cell lines of 7400 to 18300 nM.

Values taken from PMC11866022, “Long-Chain Cyclic Arylguanidines as Multifunctional Serotonin Receptor Ligands with Antiproliferative Activity” (ACS Omega, 2025).
